Experiments:
Assay type in all cases: cell-based, human
miRNAs = test: Deep sequencing of small RNAs; conditions: CEM-C7H2, Dex 24 hrs
Description: RNA of cell samples was extracted by Tri-reagent. 1 μg of each sample was sequenced on an Illumina Genome Analyzer as described by Son et al, Curr Protoc Microbiol; Chapter 1: Unit 1E 4. Data analysis was performed by a miRNAkey application Ronen et al., Bioinformatics; 26(20):2615-2616.

PANK3-GRE = test: Chromatin immunoprecipitation of PANK3-GRE; conditions: CEM-C7H2
Description: The EpiTech ChIP OneDay kit (Qiagen) was employed. IP antibodies used were: Rabbit-IgG (Qiagen), anti-GR (cell signaling) and anti-H3K4me1 (abcam). qRT-PCR was performed by syber green enzyme with the following primers: PANK3-GRE, GAPDH positive control and MYOD1 negative control (Qiagen). GR-GRE primers were planned as follow: Fw-5′ […] 3′ and 5′ […] 3′. % Enrichment was calculated according to the formula: 2̂(CT Mean(Input)−CT Mean of (Interested fraction))*100.

miR-103 = miR-103 level in patient peripheral blood lymphoblasts after PRED (qRT-PCR)
Description: Blood and bone marrow (BM) samples of pediatric acute lymphoblastic leukemia (ALL) and chronic lymphoblastic leukemia (CLL) patients were collected from hospitals for testing, and the treatment and clinical status of these patients cross-checked in a blind manner. The outline of the study was to collect blood samples from ALL patients at diagnosis, incubate the blood with or without PRED overnight and then measure miR-103 expression levels. 11 BMs of ALL patients and 6 BMs of normal pediatric donors were analyzed. Furthermore, peripheral blood samples from 8 pediatric ALL patients and 1 CLL patient were collected. The CLL and 5 ALL samples were treated with PRED in vitro while from the additional 3 ALL patients blood was taken at diagnosis and at day 1 following PRED treatment.
The outline of the study was to collect blood samples from acute lymphoblastic leukemia (ALL) patients at diagnosis, incubate the blood with or without PRED overnight and then measure miR-103 expression levels. 11 BMs of ALL patients and 6 BMs of normal pediatric donors were analyzed. Furthermore, peripheral blood samples from 8 pediatric ALL patients and 1 chronic lymphoblastic leukemia (CLL) patient were collected. The CLL and 5 ALL samples were treated with PRED in vitro while from the additional 3 ALL patients blood was taken at diagnosis and at day 1 following PRED treatment. […]

[1] = test system: MOLT-4, CUTLL, BJAB and SUD-136 cells; test: Apoptosis by PI uptake (flow cytometry), GC-resistant cell lines; conditions: for Conferring GC sensitivity (GCIA) by miRNA transfection: BJAB and MOLT-4 transfected with miRNA overexpression plasmids; for Conferring GC sensitivity (GCIA) by miRNA transfection / miR-103-mediated GCIA after re-expression of miR-17˜92a members: Dex 72 hrs; for miR-103-mediated GCIA after re-expression of miR-17˜92a members: miR-103 overexpressing BJAB
Text: (§1) Cell lines models of human T-cell acute lymphocytic leukemia (T-ALL) and Burkitt's lymphoma (BL), including the glucocorticoid (GC) sensitive cells represented by CEM-C7H2 (T-ALL, the sensitive sub-clone of CCRF-CEM), LOUCY (T-ALL) and DAUDI (BL), and the GC resistant cells represented by MOLT-4 (T-ALL), CUTLL (T-ALL), BJAB (BL) and SUD-136 (BL) were used. At least three kinds of cells were used in each type of cancer in order to minimize cell type specific variables. In addition, two types of malignancies were examined, T-ALL to represent leukemia behavior and BL to represent lymphoma behavior. Bone marrow cells were collected from normal donors and ALL patients. All experiments with human cells were approved by an institutional Helsinki committee and the Ministry of Health. Dexamethasone (DEX), RU486, Propidium iodide (PI), puromycin and Tri-reagent were purchased from sigma and TransIT-LT1 from Mirus.
(§2) Cells were treated with 100 nM Dex for 72 hrs. Percent apoptotic cells was determined by PI-uptake as measured in a FACS Calibur flow cytometer (BD).

GR = GR expression (western blot / mRNA RQ)
Description: (§3) Total lysate of 10^6 cells was prepared in 50 μl protein sample buffer (PSB) ×1.5. The following antibodies were used for immuno-blotting: anti-β-Catenin and anti-GR (BD Transduction Laboratories); anti-BIM (Calbichem); anti-CDK2, anti-c-Myb, anti-DVL1 and anti-c-Myc (Santa Cruz Biotechnology); anti-cycline E1 (Cell Signaling Technology); and anti-a-Tubulin (Sigma). Immune-blots images are presented by Image Lab 3.0 software. Specific bands were cropped by transferring images to Adobe Photoshop CS5.
(§4) Total RNA was isolated using miRNeasy mini kit (QIAGEN). For Syber green assay, precipitated RNA samples were treated with Poly A Tailing kit (Ambion). c-DNA was prepared by M-MLV reverse transcriptase (Invitrogen). q-PCR amplification of mRNA was operated by Platinum SYBER Green (Invitrogen) with the following primers: FKBP5 5′ […] 3′ and 5′ GTCTCCAATCATCGGCGTT 3′, SGK1 5′ […] 3′ and 5′ […] 3′. For Taqman based PCR, c-DNA was prepared by Taqman MicroRNA Reverse Transcription Kit (Applied Biosystem). q-PCR was performed using TaqMan 2× Universal PCR Master Mix (Applied Biosystem).

BIM = BIM expression (western blot / mRNA RQ)
Description: as §3, §4

[2] = test system: CEM-C7H2, LOUCY and DAUDI cells; test: Apoptosis by PI uptake (flow cytometry), GC-sensitive cell lines; conditions: LOUCY overexpressing miR-103, Dex-treated
Text: as §1, §2

c-Myc = c-Myc expression (western blot / RQ); conditions: miR-103 overexpressing cells; further downregulated following Dex
Description: as §3, §4

c-Myb = c-Myb expression (western blot); conditions: CEM-C7H2 and MOLT-4 T-ALL cells
Description: as §3

DVL1 and β-Catenin = DVL1 and β-Catenin expression (western blot)
Description: as §3

miR-17˜92a = test: miR-17~92a cluster expression (RQ / fold change); conditions: resistant BJAB
Description: RNA of cell samples was extracted by Tri-reagent. 1 μg of each sample was sequenced on an Illumina Genome Analyzer as described by Son et al, Curr Protoc Microbiol; Chapter 1: Unit 1E 4.
as §4, with “GTCTCCAATCATCGGCGTT” left out

[3] = test system: CEM-C7H2, BJAB, SUD-136, DAUDI and MOLT-4 cells; test: BRDU incorporation cellular proliferation assay; conditions: miR-103 overexpressing cells, no Dex
Text: A BrdU Cell Proliferation Assay kit (Exalpha Biological, Inc) or a BrdU Flow Kit (BD Pharmingen) were used to determine cellular proliferation.

BJAB cells = test: Total cell number / viability by flow cytometry; conditions: miR-103 overexpressing BJAB
Description: FIGS. 6A-E: miR-103 inhibits cellular proliferation. (A) Relative Quantification of miR-103 in BM cells of […]. (B) CEM-C7H2, BJAB and miR-103 overexpressing BJAB cells were treated with Dex (24 hrs), labeled with BRDU (1 hr), fixed and analyzed by flow cytometry. (C) miR-103 overexpressing BJAB, SUD-136, DAUDI and MOLT-4 cells were treated with Dex for 72 hrs. Cellular proliferation was measured by BRDU staining. (D) miR-103 overexpressing BJAB cells were treated with Dex and/or RU486 for 72 hrs. Cell viability was determined by flow cytometry. (E) miR-103 overexpression or sponged cells were treated with Dex and then subjected to western blot analysis using anti Cyclin E1 and CDK2 antibodies. C=Untreated, D=Dex-treated.

cycline E1 and CDK2 = test: Cycline E1 and CDK2 expression (western blot / RQ); conditions: miR-103 overexpressing cells
Description: as §3, §4

In the case of `C[C@@H]1C[C@H]2[C@@H]3CCC4=CC(=O)C=C[C@]4(C)[C@@]3(F)[C@@H](O)C[C@]2(C)[C@@]1(O)C(=O)CO` [Dex, Dexamethasone], the “Number of miRNAs most significantly modulated by Dex” value (miRNAs) was 22 and the “PANK3-GRE enrichment, anti-GR antibody, Dex-treated compared with untreated” value (PANK3-GRE) was “approximately 5%”.
In the case of `C[C@]12C=CC(=O)C=C1CC[C@@H]1[C@@H]2C(=O)C[C@@]2(C)[C@H]1CC[C@]2(O)C(=O)CO` [PRED, prednisone], the “miR-103 level in peripheral malignant lymphoblasts after PRED” value (miR-103; PRED good responders (PGR) ALL patients) was “upregulated” and the “miR-103 level in peripheral malignant lymphoblasts after PRED” value (miR-103; prednisone poor response (PPR) ALL patients) was “downregulated”.
For “miR-15b: human miRNA, SEQ ID NO: 4, overexpression plasmid (UAGCAGCACAUCAUGGUUUACA; listed as Homo sapiens)”, the “Conferring GC sensitivity (GCIA) by miRNA transfection” value (shortened to “Conferring GC sensitivity (GCIA)”) [1] was “sensitized”.
In the case of “miR-16: human miRNA, SEQ ID NO: 5, overexpression plasmid (UAGCAGCACGUAAAUAUUGGCG; listed as Homo sapiens)”, the “Conferring GC sensitivity (GCIA)” value [1] was “sensitized”.
“miR-18a: human miRNA of miR-17˜92a, SEQ ID NO: 19, re-expressed from plasmid (UAAGGUGCAUCUAGUGCAGAUAG; listed as Homo sapiens) [reference compound]” was tested, and the “miR-103-mediated GCIA after re-expression of miR-17˜92a members” value [1] was “counteracted the miR-103-mediated GCIA” and the “miR-103-mediated GR upregulation after restoring miR-18a” value (GR; miR-103 transfected cells transfected with miR-18a) was “inhibition of the GR upregulation mediated by miR-103”.
In the case of “miR-20a: human miRNA of miR-17˜92a, SEQ ID NO: 14, re-expressed from plasmid (UAAAGUGCUUAUAGUGCAGGUAG; listed as Homo sapiens) [reference compound]”, the “miR-103-mediated GCIA after re-expression of miR-17˜92a members” value [1] was “counteracted the miR-103-mediated GCIA” and the “BIM level after restoring miR-20a” value (BIM; miR-103 overexpressing BJAB transfected with miR-20a) was “re-suppressed”.
“miR-30d: human miRNA, SEQ ID NO: 3, overexpression plasmid (UGUAAACAUCCCCGACUGGAAG; listed as Homo sapiens)” was tested, and the “Conferring GC sensitivity (GCIA)” value [1] was “sensitized”.
With “miR-30e: human miRNA, SEQ ID NO: 2, overexpression plasmid (UGUAAACAUCCUUGACUGGAAG; listed as Homo sapiens)” the “Conferring GC sensitivity (GCIA)” value [1] was “sensitized”.
With “miR-103: human miRNA, SEQ ID NO: 1 AGCAGCAUUGUACAGGGCUAUGA, expressed from overexpression plasmid (Table 3) (listed as Homo sapiens)” the “GC induced apoptosis (GCIA) in miR-103 overexpressing cells” value [2] was “became hyper-sensitive to GCIA”, the “Conferring GC sensitivity (GCIA)” value [1] was “particularly effective in conferring GC sensitivity” and the “Apoptosis of miR-103 overexpressing resistant cells with Dex” value ([1]; MOLT-4, CUTLL, BJAB, SUD136 overexpressing miR-103, Dex-treated) was “underwent significant apoptosis”. For the same molecule, the “Apoptosis on miR-103 overexpression without Dex” value ([1]; untreated cells) was “only a minor effect on apoptosis”, the “c-Myc expression on miR-103 overexpression” value (c-Myc) was “reduced” and the “GR protein and mRNA on miR-103 overexpression” value (GR; miR-103 overexpressing cells) was “both GR protein and mRNA upregulation”. For the same molecule, the “BIM expression on miR-103 overexpression” value (BIM; protein and mRNA, augmented by Dex) was “induced BIM upregulation both at the protein and mRNA levels”, the “c-Myb expression on miR-103 overexpression” value (c-Myb) was “downregulates” and the “DVL1 and β-Catenin on miR-103 overexpression” value (DVL1 and β-Catenin; Burkitt's lymphoma cells) was “downregulated”. The “DVL1 expression on miR-103 overexpression” value (DVL1 and β-Catenin; CEM-C7H2) was “even upregulated”, the “β-Catenin level on miR-103 overexpression” value (DVL1 and β-Catenin; CEM-C7H2) was “unaffected” and the “β-Catenin level on miR-103 overexpression” value (DVL1 and β-Catenin; MOLT4) was “even upregulated”. The “miR-17˜92a expression on miR-103 overexpression” value (miR-17˜92a) was “reduced expression”, the “Cell proliferation (BRDU) by miR-103 itself” value [3] was “significantly reduced cell proliferation” and the “Total cell number in the culture” value (BJAB cells) was “reduced the total cell number”. The “Cycline E1 and CDK2 expression on miR-103 overexpression” value (cycline E1 and CDK2) was “downregulated”.
